Experimental data from US20060069132A1, “Azolecarboxamide herbicides” (priority 2004, published 2006).
Where two headings read alike, the source gives them in different places.

Key:
morningglory = assay: Test A pre-/postemergence herbicide test; format: in vivo, Ipomoea spp.; conditions: for pest or weed control at 125 g/ha / pest or weed control at 500 g/ha: Ipomoea, 240 h, read-out: Morningglory plant response rating; for pest or weed control at 125 g/ha: 125 g ai/ha
Summary of the method: (§1)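 Greenhouse injury scoring (0–100, complete control = 100) at approximately ten days follows simultaneous pre- and postemergence application. Soil received a directed spray after seeding; seedlings of 2–10 cm at the one- to two-leaf stage were sprayed to runoff.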

velvetleaf = assay: Test A pre-/postemergence herbicide test; format: in vivo, Abutilon theophrasti; conditions: for pest or weed control at 125 g/ha / pest or weed control at 500 g/ha: Abutilon theophrasti, 240 h, read-out: Velvetleaf plant response rating; for pest or weed control at 125 g/ha: 125 g ai/ha
Summary of the method: as §1

rice = assay: Test C flooded paddy test; format: in vivo, Oryza sativa
Summary of the method: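 Plants were grown to the 1- to 4-leaf stage (2–18 cm) and then treated postemergence, or grown to the 2-leaf stage for the flooded paddy test. They were held in a greenhouse for 12 to 14 days and then scored by eye against controls, where 0 is no effect and 100 is complete control.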

[1] = test system: smallflower umbrella sedge; assay: Test C flooded paddy test; format: in vivo, Cyperus difformis
ducksalad = assay: Test C flooded paddy test; format: in vivo, Heteranthera limosa
[2] = post-emergence, Postemergence, 0 to 100 scale, 0 no effect, 100 complete control
[3] = post-emergence, Postemergence, 500 g ai/ha, 0 to 100 scale, 0 no effect, 100 complete control
[4] = pre-emergence, preemergence, visual injury, 0 to 100 scale (0 no effect, 100 complete control)
[5] = pre-emergence, preemergence, 500 g ai/ha, visual injury, 0 to 100 scale (0 no effect, 100 complete control)
[6] = 125 g ai/ha, scale 0 to 100 (0 no effect, 100 complete control)
[7] = Postemergence, 500 g ai/ha, 0 to 100 scale, 0 no effect, 100 complete control
[8] = Postemergence, 2000 g ai/ha, 0 to 100 scale, 0 no effect, 100 complete control
[9] = Preemergence, 2000 g ai/ha, visual rating, 0 to 100 scale (0 no effect, 100 complete control)
[10] = preemergence, 500 g ai/ha, visual injury, 0 to 100 scale (0 no effect, 100 complete control)
[11] = 250 g ai/ha, scale of 0 to 100, 0 is no effect, 100 is complete control
[12] = 500 g ai/ha, visual rating after 12 to 14 days, scale 0 to 100 (0 no effect, 100 complete control)
[13] = 62 g ai/ha, scale 0 to 100 (0 no effect, 100 complete control)

In the case of `CCNC(=O)c1cccc(NC(=O)c2nc(C(C)(C)C)nn2CC)c1` [Compound 446, 3-(1,1-dimethylethyl)-1-ethyl-N-[3-[(ethylamino)carbonyl]phenyl]-1H-1,2,4-triazole-5-carboxamide], the pest or weed control at 125 g/ha (morningglory; [2]) is reported as 10%, the pest or weed control at 500 g/ha (morningglory; [3]) is reported as 40% and the pest or weed control at 125 g/ha (morningglory; [4]) is reported as 10%. For the same molecule, the pest or weed control at 500 g/ha (morningglory; [5]) was 15%, the pest or weed control at 125 g/ha (velvetleaf; [2]) was 30% and the pest or weed control at 500 g/ha (velvetleaf; [3]) was 60%. The pest or weed control at 125 g/ha (velvetleaf; [4]) was 10% and the pest or weed control at 500 g/ha (velvetleaf; [5]) was 20%.
For `CCOC(=O)c1cccc(NC(=O)c2cc(C(C)(C)C)nn2C)n1` [Compound 313], the “Rice plant response rating” value (rice; 16 g ai/ha, scale 0 to 100) was 0, the “Rice plant response rating” value (rice; 31 g ai/ha, scale 0 to 100) was 0 and the “Rice plant response rating” value (rice; 62 g ai/ha, scale 0 to 100) was 0. For the same molecule, the “Rice plant response rating” value (rice; [6]) was 20, the “Morningglory plant response rating” value (morningglory; [7]) was 30 and the “Plant response rating, Morningglory” value (morningglory; [8]) was 55. The “Morningglory plant response rating” value (morningglory; [9]) was 55, the “Morningglory plant response rating” value (morningglory; [10]) was 20 and the “Sedge, Umbrella plant response rating” value ([1]; 16 g ai/ha, scale 0 to 100) was 0. The “Sedge, Umbrella plant response rating” value ([1]; 31 g ai/ha, scale 0 to 100) was 0, the “Sedge, Umbrella plant response rating” value ([1]; 62 g ai/ha, scale 0 to 100) was 30 and the “Sedge, Umbrella plant response rating” value [1, 6] was 70. The “Ducksalad plant response rating” value (ducksalad; 16 g ai/ha, scale 0 to 100) was 0, the “Ducksalad plant response rating” value (ducksalad; 31 g ai/ha, scale 0 to 100) was 0 and the “Ducksalad plant response rating” value (ducksalad; 62 g ai/ha, scale 0 to 100) was 0. For the same molecule, the “Ducksalad plant response rating” value (ducksalad; [6]) was 30, the “Velvetleaf plant response rating” value (velvetleaf; [7]) was 40 and the “Plant response rating, Velvetleaf” value (velvetleaf; [8]) was 50. The “Velvetleaf plant response rating” value (velvetleaf; [9]) was 80 and the “Velvetleaf plant response rating” value (velvetleaf; [10]) was 65.
`CCn1nc(C(C)(C)C)c(F)c1C(=O)Nc1cc(C(=O)N(C)C)ccc1F` [Compound 276, N-[5-[(dimethylamino)carbonyl]-2-fluorophenyl]-3-(1,1-dimethylethyl)-1-ethyl-4-fluoro-1H-pyrazole-5-carboxamide] showed a plant injury at 62 g/ha (rice; Oryza sativa, 62 g ai/ha, scale 0 to 100, read-out: Rice plant response rating) of 0%, a plant injury at 125 g/ha (rice; Oryza sativa, 125 g ai/ha, scale 0 to 100 (0 no effect, 100 complete control), read-out: Rice plant response rating) of 15% and a plant injury at 250 g/ha (rice; Oryza sativa, 250 g ai/ha, scale of 0 to 100, 0 is no effect, 100 is complete control, read-out: Rice plant response rating) of 50%. The plant injury at 500 g/ha (rice; Oryza sativa, 500 g ai/ha, visual rating after 12 to 14 days, scale 0 to 100 (0 no effect, 100 complete control), read-out: Plant response rating, Rice) was 70%, the pest or weed control at 62 g/ha ([1]; Cyperus difformis, 62 g ai/ha, scale 0 to 100, read-out: Sedge, Umbrella plant response rating) was 45% and the pest or weed control at 125 g/ha ([1]; Cyperus difformis, 125 g ai/ha, scale 0 to 100 (0 no effect, 100 complete control), read-out: Sedge, Umbrella plant response rating) was 75%. For the same molecule, the pest or weed control at 250 g/ha ([1]; Cyperus difformis, 250 g ai/ha, scale of 0 to 100, 0 is no effect, 100 is complete control, read-out: Sedge, Umbrella plant response rating) was 80%, the pest or weed control at 500 g/ha ([1]; Cyperus difformis, 500 g ai/ha, visual rating after 12 to 14 days, scale 0 to 100 (0 no effect, 100 complete control), read-out: Plant response rating, Sedge, Umbrella) was 85% and the pest or weed control at 62 g/ha (ducksalad; Heteranthera limosa, 62 g ai/ha, scale 0 to 100, read-out: Ducksalad plant response rating) was 0%. It also gave a pest or weed control at 125 g/ha (ducksalad; Heteranthera limosa, 125 g ai/ha, scale 0 to 100 (0 no effect, 100 complete control), read-out: Ducksalad plant response rating) of 20%, a pest or weed control at 250 g/ha (ducksalad; Heteranthera limosa, 250 g ai/ha, scale of 0 to 100, 0 is no effect, 100 is complete control, read-out: Ducksalad plant response rating) of 70% and a pest or weed control at 500 g/ha (ducksalad; Heteranthera limosa, 500 g ai/ha, visual rating after 12 to 14 days, scale 0 to 100 (0 no effect, 100 complete control), read-out: Plant response rating, Ducksalad) of 85%.
For `C=CCN(C)C(=O)c1cccc(NC(=O)c2cc(C(C)(C)C)nn2CC)c1` [Compound 285], the “Rice plant response rating” value (rice; 62 g ai/ha, scale 0 to 100) was 25, the “Rice plant response rating” value (rice; [6]) was 40 and the “Rice plant response rating” value (rice; [11]) was 45. For the same molecule, the “Plant response rating, Rice” value (rice; [12]) was 65, the “Morningglory plant response rating” value (morningglory; [7]) was 40 and the “Plant response rating, Morningglory” value (morningglory; [8]) was 50. For the same molecule, the “Morningglory plant response rating” value (morningglory; [9]) was 45, the “Morningglory plant response rating” value (morningglory; [10]) was 25 and the “Sedge, Umbrella plant response rating” value ([1]; 62 g ai/ha, scale 0 to 100) was 25. The “Sedge, Umbrella plant response rating” value [1, 6] was 35, the “Sedge, Umbrella plant response rating” value [1, 11] was 50 and the “Plant response rating, Sedge, Umbrella” value [1, 12] was 65. For the same molecule, the “Ducksalad plant response rating” value (ducksalad; 62 g ai/ha, scale 0 to 100) was 45, the “Ducksalad plant response rating” value (ducksalad; [6]) was 80 and the “Ducksalad plant response rating” value (ducksalad; [11]) was 90. For the same molecule, the “Plant response rating, Ducksalad” value (ducksalad; [12]) was 90, the “Velvetleaf plant response rating” value (velvetleaf; [7]) was 60 and the “Plant response rating, Velvetleaf” value (velvetleaf; [8]) was 75. The “Velvetleaf plant response rating” value (velvetleaf; [9]) was 40 and the “Velvetleaf plant response rating” value (velvetleaf; [10]) was 35.
For `CCNC(=O)c1ccc(F)c(NC(=O)c2c3c(nn2CC)C(C)(C)CC3)c1` [Compound 353], the “Rice plant response rating” value (rice; 62 g ai/ha, scale 0 to 100) was 0, the “Rice plant response rating” value (rice; [6]) was 0 and the “Rice plant response rating” value (rice; [11]) was 20. For the same molecule, the “Plant response rating, Rice” value (rice; [12]) was 40, the “Sedge, Umbrella plant response rating” value ([1]; 62 g ai/ha, scale 0 to 100) was 0 and the “Sedge, Umbrella plant response rating” value [1, 6] was 0. For the same molecule, the “Sedge, Umbrella plant response rating” value [1, 11] was 50, the “Plant response rating, Sedge, Umbrella” value [1, 12] was 50 and the “Ducksalad plant response rating” value (ducksalad; 62 g ai/ha, scale 0 to 100) was 0. The “Ducksalad plant response rating” value (ducksalad; [6]) was 0, the “Ducksalad plant response rating” value (ducksalad; [11]) was 30 and the “Plant response rating, Ducksalad” value (ducksalad; [12]) was 30.
For `C=Cn1nc(C(C)(C)C)cc1C(=O)Nc1cccc(C(C)=O)c1` [Compound 127], the “Rice plant response rating” value (rice; [13]) was 20, the “Rice plant response rating” value (rice; [6]) was 25 and the “Rice plant response rating” value (rice; [11]) was 25. The “Plant response rating, Rice” value (rice; [12]) was 25, the “Morningglory plant response rating” value (morningglory; [7]) was 10 and the “Plant response rating, Morningglory” value (morningglory; [8]) was 20. The “Morningglory plant response rating” value (morningglory; Preemergence, 500 g ai/ha, visual rating, 0 to 100 scale (0 no effect, 100 complete control)) was 30, the “Morningglory plant response rating” value (morningglory; [9]) was 30 and the “Sedge, Umbrella plant response rating” value [1, 13] was 80. For the same molecule, the “Sedge, Umbrella plant response rating” value [1, 6] was 80, the “Sedge, Umbrella plant response rating” value [1, 11] was 80 and the “Plant response rating, Sedge, Umbrella” value [1, 12] was 85. The “Ducksalad plant response rating” value (ducksalad; [13]) was 0, the “Ducksalad plant response rating” value (ducksalad; [6]) was 15 and the “Ducksalad plant response rating” value (ducksalad; [11]) was 20. The “Plant response rating, Ducksalad” value (ducksalad; [12]) was 80, the “Velvetleaf plant response rating” value (velvetleaf; [7]) was 0 and the “Plant response rating, Velvetleaf” value (velvetleaf; [8]) was 0. The “Velvetleaf plant response rating” value (velvetleaf; [9]) was 30 and the “Velvetleaf plant response rating” value (velvetleaf; [10]) was 10.
